Measured values taken from US20220046923A1, “HERBICIDAL CINNOLINIUM COMPOUNDS” (SYNGENTA CROP PROTECTION AG, priority 2018, published 2022).

Tests used:
Test in all cases: Post-emergence efficacy, glasshouse spray test
Assay type in all cases: in vivo
[1] = test system: Amaranthus palmeri (AMAPA); details: Amaranthus palmeri, post-emergence, 312 h, evaluated after 13 days, read-out: Control of weed species AMAPA after post-emergence application (100=total damage to plant; 0=no damage to plant); for pest or weed control at 1000 g/ha: application rate 1000 g/Ha; for pest or weed control at 500 g/ha: application rate 500 g/Ha
Description: (§1) Seeds of a variety of test species were sown in standard soil in pots. After cultivation for 14 days (post-emergence) under controlled conditions in a glasshouse (at 24/16° C., day/night; 14 hours light; 65% humidity), the plants were sprayed with an aqueous spray solution derived from the dissolution of the technical active ingredient formula (I) in a small amount of acetone and a special solvent and emulsifier mixture referred to as IF50 (11.12% Emulsogen EL360 TM+44.44% N-methylpyrrolidone+44.44% Dowanol DPM glycol ether), to create a 50 g/l solution which was then diluted to required concentration using 0.25% or 1% Empicol ESC70 (Sodium lauryl ether sulphate)+1% ammonium sulphate as diluent. The test plants were then grown in a glasshouse under controlled conditions (at 24/16° C., day/night; 14 hours light; 65% humidity) and watered twice daily. After 13 days the test was evaluated (100=total damage to plant; 0=no damage to plant).
(§2) Ipomoea hederacea (IPOHE), Euphorbia heterophylla (EPHHL), Chenopodium album (CHEAL), Amaranthus palmeri (AMAPA), Lolium perenne (LOLPE), Digitaria sanguinalis (DIGSA), Eleusine indica (ELEIN), Echinochloa crus-galli (ECHCG), Setaria faberi (SETFA)

[2] = test system: Chenopodium album (CHEAL); details: Chenopodium album, post-emergence, 312 h, evaluated after 13 days, read-out: Control of weed species CHEAL after post-emergence application (100=total damage to plant; 0=no damage to plant); for pest or weed control at 1000 g/ha: application rate 1000 g/Ha; for pest or weed control at 500 g/ha: application rate 500 g/Ha
Description: as §1, §2

[3] = test system: Digitaria sanguinalis (DIGSA); details: Digitaria sanguinalis, post-emergence, 312 h, evaluated after 13 days, read-out: Control of weed species DIGSA after post-emergence application (100=total damage to plant; 0=no damage to plant); for pest or weed control at 1000 g/ha: application rate 1000 g/Ha; for pest or weed control at 500 g/ha: application rate 500 g/Ha
Description: as §1, §2

[4] = test system: Echinochloa crus-galli (ECHCG); details: Echinochloa crus-galli, post-emergence, 312 h, evaluated after 13 days, read-out: Control of weed species ECHCG after post-emergence application (100=total damage to plant; 0=no damage to plant); for pest or weed control at 1000 g/ha: application rate 1000 g/Ha; for pest or weed control at 500 g/ha: application rate 500 g/Ha
Description: as §1, §2

Eleusine indica (ELEIN) = details: Eleusine indica, post-emergence, 312 h, evaluated after 13 days, read-out: Control of weed species ELEIN after post-emergence application (100=total damage to plant; 0=no damage to plant); for pest or weed control at 1000 g/ha: application rate 1000 g/Ha; for pest or weed control at 500 g/ha: application rate 500 g/Ha
Description: as §1, §2

[5] = test system: Euphorbia heterophylla (EPHHL); details: Euphorbia heterophylla, post-emergence, 312 h, evaluated after 13 days, read-out: Control of weed species EPHHL after post-emergence application (100=total damage to plant; 0=no damage to plant); for pest or weed control at 1000 g/ha: application rate 1000 g/Ha; for pest or weed control at 500 g/ha: application rate 500 g/Ha
Description: as §1, §2

[6] = test system: Ipomoea hederacea (IPOHE); details: Ipomoea hederacea, post-emergence, 312 h, evaluated after 13 days, read-out: Control of weed species IPOHE after post-emergence application (100=total damage to plant; 0=no damage to plant); for pest or weed control at 1000 g/ha: application rate 1000 g/Ha; for pest or weed control at 500 g/ha: application rate 500 g/Ha
Description: as §1, §2

Lolium perenne (LOLPE) = details: Lolium perenne, post-emergence, 312 h, evaluated after 13 days, read-out: Control of weed species LOLPE after post-emergence application (100=total damage to plant; 0=no damage to plant); for pest or weed control at 1000 g/ha: application rate 1000 g/Ha; for pest or weed control at 500 g/ha: application rate 500 g/Ha
Description: as §1, §2

Setaria faberi (SETFA) = details: Setaria faberi, post-emergence, 312 h, evaluated after 13 days, read-out: Control of weed species SETFA after post-emergence application (100=total damage to plant; 0=no damage to plant); for pest or weed control at 1000 g/ha: application rate 1000 g/Ha; for pest or weed control at 500 g/ha: application rate 500 g/Ha
Description: as §1, §2

| Structure (SMILES) | pest or weed control at 1000 g/ha [1] | pest or weed control at 1000 g/ha [2] | pest or weed control at 1000 g/ha [3] | pest or weed control at 1000 g/ha [4] | pest or weed control at 1000 g/ha (Eleusine indica (ELEIN)) | pest or weed control at 1000 g/ha [5] | pest or weed control at 1000 g/ha [6] | pest or weed control at 1000 g/ha (Lolium perenne (LOLPE)) | pest or weed control at 1000 g/ha (Setaria faberi (SETFA)) | pest or weed control at 500 g/ha [1] | pest or weed control at 500 g/ha [2] | pest or weed control at 500 g/ha [3] | pest or weed control at 500 g/ha [4] | pest or weed control at 500 g/ha (Eleusine indica (ELEIN)) | pest or weed control at 500 g/ha [5] | pest or weed control at 500 g/ha [6] | pest or weed control at 500 g/ha (Lolium perenne (LOLPE)) | pest or weed control at 500 g/ha (Setaria faberi (SETFA)) |
| --- | --- | --- | --- | --- | --- | --- | --- | --- | --- | --- | --- | --- | --- | --- | --- | --- | --- | --- |
| O=C([O-])C[n+]1ccc2ccccc2n1 [Compound A2, 2-cinnolin-2-ium-2-ylacetate] | 100% | 80% | 100% | 100% | 100% | 90% | 40% | 20% | 80% |  |  |  |  |  |  |  |  |  |
| COC(=O)C[n+]1cc(C)c2cc(C)cc(C)c2n1 [Compound A3] | 20% | 10% | 0% | 0% | 0% | 20% | 10% | 20% | 10% |  |  |  |  |  |  |  |  |  |
| Cc1cc(C)c2n[n+](CC(=O)[O-])cc(C)c2c1 [Compound A4] | 40% | 10% | 10% | 10% | 20% | 40% | 30% | 10% | 0% |  |  |  |  |  |  |  |  |  |
| CONC(=O)C[n+]1cc(C)c2cc(C)cc(C)c2n1 [Compound A5] | 30% | 20% | 10% | 0% | 10% | 30% | 20% | 0% | 10% |  |  |  |  |  |  |  |  |  |
| Cc1cc(C)c2n[n+](CC(=O)OC(C)C)cc(C)c2c1 [Compound A6, isopropyl 2-(4,6,8-trimethylcinnolin-2-ium-2-yl)acetate chloride] | 40% | 20% | 10% | 10% | 30% | 30% | 10% | 10% | 10% |  |  |  |  |  |  |  |  |  |
| COC(=O)C[n+]1cc(C)c2cccc(C)c2n1 [Compound A7] | 30% | 30% | 0% | 10% | 20% | 20% | 10% | 20% | 10% |  |  |  |  |  |  |  |  |  |
| Cc1c[n+](CC(=O)[O-])nc2c(C)cccc12 [Compound A8] | 50% | 60% | 30% | 20% | 50% | 40% | 30% | 10% | 10% |  |  |  |  |  |  |  |  |  |
| COC(=O)C[n+]1cc(C)c2cc(C)ccc2n1 [Compound A9] | 10% | 60% | 40% | 10% | 70% | 50% | 20% | 10% | 10% |  |  |  |  |  |  |  |  |  |
| Cc1ccc2n[n+](CC(=O)[O-])cc(C)c2c1 [Compound A10] | 30% | 30% | 50% | 40% | 70% | 40% | 40% | 10% | 40% |  |  |  |  |  |  |  |  |  |
| Cc1c[n+](CCS(=O)(=O)[O-])nc2ccccc12 [Compound A11] | 100% | 100% | 40% | 60% | 80% | 80% | 80% | 0% | 70% |  |  |  |  |  |  |  |  |  |
| N[C@H](CC[n+]1ccc2ccccc2n1)C(=O)O [Compound A12, [(1R)-1-carboxy-3-cinnolin-2-ium-2-yl-propyl]ammonium 2,2,2-trifluoroacetate] | 80% | 70% | 80% | 40% | 90% | 50% | 60% | 40% | 50% |  |  |  |  |  |  |  |  |  |
| CNC(=O)c1c[n+](CCS(=O)(=O)[O-])nc2ccccc12 [Compound A13] |  |  |  |  |  |  |  |  |  | 40% | 50% | 50% | 50% | 30% | 20% | 20% | 20% | 60% |
| CNC(=O)c1c[n+](CCC(=O)O)nc2ccccc12 [Compound A14] |  |  |  |  |  |  |  |  |  | 100% | 90% | 80% | 70% | 100% | 60% | 50% | 30% | 80% |
| CS(=O)(=O)NC(=O)C[n+]1ccc2ccccc2n1 [Compound A15, 2-cinnolin-2-ium-2-yl-N-methylsulfonyl-acetamide bromide] | 90% | 80% | 70% | 40% | 80% | 90% | 80% | 60% | 60% |  |  |  |  |  |  |  |  |  |
